Results from patent publication US6592890B1, “Conveyance of anti-infective activity to wound dressings” (OxiBio, Inc., priority 1999, dated 2003).

Tested on: C. albicans

Compound: II [elemental iodine]
- elemental iodine concentrations required to affect microbial killing: < 0.01%
